# Results reported in patent US20110118337A1, “Method of Using Compositions Comprising MIR-192 and/or MIR-215 for the Treatment of Cancer” (Merck Sharp & Dohme Corp., priority 2008, published 2011).
# Test system: HCT116DICER^ex5 cells
# Experiment: Cell cycle FACS screen of pools of three siRNAs per gene (G1 after nocodazole, G2/M after aphidicolin)
# Assay type: cell-based, human
# Conditions: pools of 3 siRNAs/gene at 100 nM final, FACS 66 hours post-transfection, average of two experiments
# Source text: To identify targets whose modulation influences the cell cycle arrest phenotype observed with miR-192 expression, the 62 candidate genes identified as described in Example 2 and shown in TABLE 3 were silenced individually by transfecting a pool of 3 gene-specific siRNA duplexes per gene (each directed to a different region of the gene) into HCT116DICER^ex5 cells. The siRNA duplex sequences (3 duplexes per gene) used to target each of the 62 genes are shown below in TABLE 5. The siRNA duplex oligonucleotides were obtained from Sigma-Genesys, as described in Linsley, P. S. et al., Mol Cell Biol 27:2240-2252 (2007).
# HCT116DICER^ex5 cells were transiently transfected with pools of three different siRNA duplexes per gene at a 100 nM final concentration using Lipofectamine RNAiMax (Invitrogen), according to the manufacturer's instructions. At 48 hours post transfection, cells were left untreated, treated with nocodazole (100 ng/mL, Sigma-Aldrich), or treated with aphidicolin (2 μg/mL, Sigma-Aldrich) for an additional 18 hours before harvesting. The cells transfected with the siRNA pools were then screened by FACS analysis as described in Example 3 for the percentage of cells arrested in G1 or G2/M as compared to the negative siRNA luciferase control.
# The siRNA pools tested in this screen were ranked according to the percentage of cells arrested in G1 or G2/M following transfection, as compared with a negative control siRNA targeting luciferase. To avoid being misled by possible RNAi off-target effects, the siRNA pools were deconvoluted to identify genes for which at least 2 different siRNA duplexes from the pool caused the cell cycle arrest phenotype (data not shown).
# TABLE 6 summarizes the data obtained 66 hours post-transfection by FACS analysis showing the cell cycle distribution of the HCT116DICER^ex5 cells transfected with siRNA pools of 3 siRNAs/gene. Each pool was analyzed in two separate experiments, and the average percentage of the cells trapped in G1 (following nocodazole treatment), or G2/M (following aphidicolin treatment) are shown in TABLE 6.
substance,measurement,setting,value
FGF2,"% G2 (Avg), Aphidicholin+",aphidicolin 2 μg/mL 18 h,19.8%
same,"% G1 (Avg), Nocodazole+",nocodazole 100 ng/mL 18 h,33.7%
